This passage reports IC50 results from PMC6306373, “The development of a GPR44 targeting radioligand [^11C]AZ12204657 for in vivo assessment of beta cell mass” (EJNMMI Research, 2018).

Usually IC50 stands for the concentration that inhibits the measured activity by half. Low readings indicate higher potency, high ones lower potency.

The target of this test is T1, GPR44 (prostaglandin D2 receptor 2, DP2, CRTh2) (Homo sapiens, UniProt Q9Y5Y4).
T1 construct: gene PTGDR2; human recombinant GPR44 co-expressed with Gα16 in HEK293 cell membranes
T1 sequence (Q9Y5Y4 1-395): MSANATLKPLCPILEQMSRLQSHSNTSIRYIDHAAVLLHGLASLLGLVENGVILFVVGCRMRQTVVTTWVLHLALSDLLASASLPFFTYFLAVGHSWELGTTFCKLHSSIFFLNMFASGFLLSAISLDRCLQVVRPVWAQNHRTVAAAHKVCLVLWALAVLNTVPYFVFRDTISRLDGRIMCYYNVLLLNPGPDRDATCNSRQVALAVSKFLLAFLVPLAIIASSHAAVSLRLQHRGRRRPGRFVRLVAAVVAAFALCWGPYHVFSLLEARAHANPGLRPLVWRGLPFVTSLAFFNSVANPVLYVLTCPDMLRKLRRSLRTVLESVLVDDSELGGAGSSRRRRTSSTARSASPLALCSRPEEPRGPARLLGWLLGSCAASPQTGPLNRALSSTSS
In words: [3H]PGD2 displacement SPA on HEK293 membranes; also displacement of [[…]-3H-phenoxy]-AZ12204657 by filtration (IC50 […]). In kind it is binding.

For the molecule `C[C@H](Oc1ccc(Cl)cc1Oc1ccc(S(C)(=O)=O)cc1Cl)C(=O)O` [AZ12204657, (S)-2-(4-chloro-2-[2-chloro-4-(methylsulfonyl)phenoxy]phenoxy) propanoic acid], the IC50 is 2.5 nM.
